Measurements published in US11638706B2, “Methods for treating Huntington's disease” (PTC Therapeutics, Inc., priority 2015, dated 2023).

These compounds were tested on Huntingtin protein (HTT) (assay: Endogenous Huntingtin Protein Assay (MSD electrochemiluminescence ELISA; MW1 or MAB2166 capture, #5656S detection)).
Format: cell-based, human
Procedure: The Endogenous Huntingtin Protein assay used in Example 2 was developed using the Best Pair antibodies identified in Table 2, providing highly sensitive, high-throughput detection assays for polyglutamine-expanded (mHTT) and total human HTT in multiple cell systems. The platform used for the assay is the ELISA-based Meso Scale Discovery (MSD) electrochemiluminescence assay platform.
Meso Scale Discovery (MSD) 96-well or 384-well plates were coated overnight at 4° C. with MW1 (expanded polyglutamine) or MAB2166 monoclonal antibody (for capture) at a concentration of 1 μg/mL in PBS (30 μL per well). Plates were then washed three times with 300 μL wash buffer (0.05% Tween-20 in PBS) and blocked (100 μL blocking buffer; 5% BSA in PBS) for 4-5 hours at room temperature with rotational shaking and then washed three times with wash buffer.
Samples (25 μL) were transferred to the antibody-coated MSD plate and incubated overnight at 4° C. After removal of the lysates, the plate was washed three times with wash buffer, and 25 μL of #5656S (Cell signaling; rabbit monoclonal) secondary antibody (diluted to 0.25 μg/mL in 0.05% Tween-20 in blocking buffer) was added to each well and incubated with shaking for 1 Hour at room temperature. Following incubation with the secondary antibody, the wells were rinsed with wash buffer after which 25 μL of goat anti-rabbit SULFO TAG secondary detection antibody (required aspect of the MSD system) (diluted to 0.25 μg/mL in 0.05% Tween-20 in blocking buffer) was added to each well and incubated with shaking for 1 hour at room temperature. After rinsing three times with wash buffer, 150 μL of read buffer T with surfactant (MSD) were added to each empty well, and the plate was imaged on a SI 6000 imager (MSD) according to manufacturers' instructions provided for 96- or 384-well plates.

Q: With `CC1(C)CC(Oc2ccc(-c3cc(-c4cn[nH]c4)cs3)nn2)CC(C)(C)N1` [Cpd 450, 3-[4-(1H-pyrazol-4-yl)thiophen-2-yl]-6-[(2,2,6,6-tetramethylpiperidin-4-yl)oxy]pyridazine] as the compound, how does the IC50 read?
A: Its IC50 is 3000 to 9000 nM.

Q: With `CC1CC(Oc2ccc(-c3ccc(-c4cn[nH]c4)cc3O)nn2)CC(C)N1` (stereo not drawn) [Cpd 436, 2-{6-[(2,6-dimethylpiperidin-4-yl)oxy]pyridazin-3-yl}-5-(1H-pyrazol-4-yl)phenol] as the compound, how does the IC50 read?
A: The IC50 was 500 to 1000 nM.

Q: `CN(c1ccc(-c2cc3cncnc3cc2O)nn1)C1CC(C)(C)NC(C)(C)C1` [Cpd 258, 6-(6-(methyl(2,2,6,6-tetramethylpiperidin-4-yl)amino)pyridazin-3-yl)quinazolin-7-ol] was tested. Which IC50 did it give?
A: Its IC50 is 100 to 500 nM.

Q: For `CN(c1nnc(-c2ccc(-c3cn[nH]c3)cc2O)s1)C1CC(C)(C)NC(C)(C)C1` [Cpd 393], which IC50 is on record?
A: Its IC50 is at most 100 nM.

Q: With `CN(c1nnc(-c2cc(F)c(-c3cn[nH]c3)cc2F)s1)C1CC(C)(C)NC(C)(C)C1` [Cpd 350] as the compound, how does the IC50 read?
A: Its IC50 is at most 100 nM.

Q: With `Cn1cc(-c2csc(-c3ccc(OC4CC(C)(C)NC(C)(C)C4)nn3)c2)cn1` [Cpd 438, 3-[4-(1-methyl-1H-pyrazol-4-yl)thiophen-2-yl]-6-[(2,2,6,6-tetramethylpiperidin-4-yl)oxy]pyridazine] as the compound, how does the IC50 read?
A: Its IC50 is 1000 to 3000 nM.
